Target: T1, recombinant human Cyp19 enzyme (Homo sapiens, UniProt P11511)
T1 construct: purchased Becton Dickinson Biosciences, San Jose, Calif., USA
T1 sequence (P11511 1-503): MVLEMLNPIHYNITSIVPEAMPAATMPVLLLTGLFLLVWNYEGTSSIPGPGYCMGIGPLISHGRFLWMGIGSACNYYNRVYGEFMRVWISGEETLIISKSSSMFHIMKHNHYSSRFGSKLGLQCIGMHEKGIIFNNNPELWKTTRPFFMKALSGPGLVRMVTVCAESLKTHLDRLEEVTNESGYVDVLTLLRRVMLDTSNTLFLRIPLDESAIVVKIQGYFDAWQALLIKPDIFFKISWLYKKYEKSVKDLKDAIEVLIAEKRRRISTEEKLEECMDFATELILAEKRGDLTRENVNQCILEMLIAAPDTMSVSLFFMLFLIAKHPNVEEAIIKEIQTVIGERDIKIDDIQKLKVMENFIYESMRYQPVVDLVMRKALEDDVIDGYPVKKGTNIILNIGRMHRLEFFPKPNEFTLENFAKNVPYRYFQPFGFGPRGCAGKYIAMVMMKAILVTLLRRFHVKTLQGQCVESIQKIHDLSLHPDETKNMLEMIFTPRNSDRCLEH
Test: Cyp19/methoxy-4-trifluoromethyl-coumarin (MFC) high throughput inhibition kit
Format: biochemical
Settings: Cyp19 supersomes, MFC substrate
Experimental: A compound of formula (I) is to be understood as a compound having a specific configuration around the designated asymmetric carbon atom labelled “*”. If a synthesis method is used which leads to racemic compounds, the racemate resolution is carried out in accordance with conventional methods, such as via a chiral HPLC column. […] The aforementioned activity can, readily and as described below, be determined by using a commercial Cyp19 enzyme inhibition kit, preferably the Cyp19/methoxy-4-trifluoromethyl-coumarin (MFC) high throughput inhibition kit (Becton Dickinson Biosciences, San Jose, Calif., USA) as described hereafter. In the above-mentioned inhibition kit, compounds of the formula (I) show an inhibiting activity which is at least 10 times higher, but preferably 20 times higher, or more preferably 40 times higher, than the substances of the formula (I) with the opposite configuration around the asymmetric carbon atom labelled “*”. A higher inhibiting activity corresponds to a lower IC50 value.
These effects are demonstrable in in vitro assay tests using cell-free and cellular systems. […] The Cyp19/Methoxy-4-trifluoromethyl-coumarin (MFC) high throughput inhibition kit (Becton Dickinson Biosciences, San Jose, Calif., USA), for example, is designed to screen for potential inhibitors of Cyp19 catalytic activity in a 96-well format. […]

For `N#Cc1ccc(C2OCCn3cncc32)cc1` (stereo not shown) [antipode of 1], the IC50 was 2.77 µM.

— US7795253B2, “Condensed imidazole derivatives as aromatase inhibitors” (Novartis AG, priority 2006, dated 2010)
